Results on 29 compounds are retold here after patent US12065436B2, “Cardiac sarcomere inhibitors” (Cytokinetics, Inc., priority 2018, dated 2024).

Bounds are passed on as bounds.

The assay concerns the target bovine cardiac myofibrils (full-length cardiac myosin ATPase in the native sarcomere) (Bos taurus (Bovine), UniProt Q9BE39). Nature of the assay: Skinned bovine cardiac myofibril ATPase assay (PK/LDH-coupled). Format: biochemical. To be noted: Ca2+ activating to 75% of maximal rate; for CDMF75 IC15: concentration giving 15% inhibition; for IC50: read-out: CDMF75 IC50. Put shortly: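 Inhibition of steady-state ATPase read at 340 nm through a PK/LDH-coupled NADH system (0.5 mM NADH, 1.5 mM PEP). Detergent-skinned bovine cardiac myofibrils, 1 mg/mL, were tested at pH 6.8 in PIPES/MgCl2 with 50 μM ATP and calcium adjusted to give pCa50 or pCa75 activation.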

Chain of bovine cardiac myofibrils (full-length cardiac myosin ATPase in the native sarcomere) (Q9BE39 whole entry): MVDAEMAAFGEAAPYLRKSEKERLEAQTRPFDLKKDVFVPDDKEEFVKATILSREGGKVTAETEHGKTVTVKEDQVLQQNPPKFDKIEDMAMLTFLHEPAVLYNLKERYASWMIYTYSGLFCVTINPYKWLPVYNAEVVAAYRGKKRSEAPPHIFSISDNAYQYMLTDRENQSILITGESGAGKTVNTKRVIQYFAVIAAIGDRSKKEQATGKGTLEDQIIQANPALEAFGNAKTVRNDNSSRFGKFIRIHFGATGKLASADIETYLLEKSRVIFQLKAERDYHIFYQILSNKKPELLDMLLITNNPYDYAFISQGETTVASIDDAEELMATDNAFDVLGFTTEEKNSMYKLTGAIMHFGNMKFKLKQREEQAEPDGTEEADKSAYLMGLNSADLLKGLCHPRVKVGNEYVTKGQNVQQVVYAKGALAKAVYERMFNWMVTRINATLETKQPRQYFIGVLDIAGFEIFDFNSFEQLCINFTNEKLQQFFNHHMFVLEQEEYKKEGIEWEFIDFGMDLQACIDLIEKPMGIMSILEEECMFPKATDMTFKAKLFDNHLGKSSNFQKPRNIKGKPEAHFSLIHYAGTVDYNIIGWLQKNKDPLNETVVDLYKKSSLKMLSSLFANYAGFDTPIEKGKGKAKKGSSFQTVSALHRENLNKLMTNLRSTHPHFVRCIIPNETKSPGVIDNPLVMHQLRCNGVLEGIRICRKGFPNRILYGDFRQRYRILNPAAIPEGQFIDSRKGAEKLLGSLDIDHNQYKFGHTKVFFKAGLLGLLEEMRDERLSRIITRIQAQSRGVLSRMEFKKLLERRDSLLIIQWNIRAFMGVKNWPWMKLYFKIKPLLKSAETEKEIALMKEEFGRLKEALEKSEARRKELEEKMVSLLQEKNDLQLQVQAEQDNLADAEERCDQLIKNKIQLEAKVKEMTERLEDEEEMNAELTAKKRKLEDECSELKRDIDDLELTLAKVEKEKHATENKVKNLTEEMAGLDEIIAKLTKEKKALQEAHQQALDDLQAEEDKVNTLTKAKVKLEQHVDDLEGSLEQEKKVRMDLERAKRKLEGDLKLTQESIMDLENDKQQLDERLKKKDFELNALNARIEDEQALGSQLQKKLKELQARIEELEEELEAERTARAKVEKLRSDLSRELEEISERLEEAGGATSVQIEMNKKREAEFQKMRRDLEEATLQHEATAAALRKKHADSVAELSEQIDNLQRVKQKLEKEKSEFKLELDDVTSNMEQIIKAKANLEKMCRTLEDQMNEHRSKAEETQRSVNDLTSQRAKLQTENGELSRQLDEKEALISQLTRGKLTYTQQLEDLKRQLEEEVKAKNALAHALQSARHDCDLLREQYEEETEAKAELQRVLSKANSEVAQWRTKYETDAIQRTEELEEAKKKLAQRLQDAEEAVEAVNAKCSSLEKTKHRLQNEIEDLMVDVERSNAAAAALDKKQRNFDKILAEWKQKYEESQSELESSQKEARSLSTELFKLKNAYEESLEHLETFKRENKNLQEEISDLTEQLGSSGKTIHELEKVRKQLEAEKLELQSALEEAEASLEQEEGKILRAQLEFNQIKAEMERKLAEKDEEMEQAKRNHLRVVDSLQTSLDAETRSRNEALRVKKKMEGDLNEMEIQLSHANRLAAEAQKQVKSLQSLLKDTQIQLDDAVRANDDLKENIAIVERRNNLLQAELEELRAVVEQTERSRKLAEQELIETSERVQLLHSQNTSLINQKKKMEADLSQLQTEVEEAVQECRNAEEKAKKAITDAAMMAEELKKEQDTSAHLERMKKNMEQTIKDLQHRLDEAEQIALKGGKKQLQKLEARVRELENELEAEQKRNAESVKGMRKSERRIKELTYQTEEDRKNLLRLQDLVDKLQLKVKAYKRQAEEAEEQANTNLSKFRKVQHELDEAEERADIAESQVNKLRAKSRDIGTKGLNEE
Chain of bovine cardiac myofibrils (full-length cardiac myosin ATPase in the native sarcomere) (P85100 whole entry partner): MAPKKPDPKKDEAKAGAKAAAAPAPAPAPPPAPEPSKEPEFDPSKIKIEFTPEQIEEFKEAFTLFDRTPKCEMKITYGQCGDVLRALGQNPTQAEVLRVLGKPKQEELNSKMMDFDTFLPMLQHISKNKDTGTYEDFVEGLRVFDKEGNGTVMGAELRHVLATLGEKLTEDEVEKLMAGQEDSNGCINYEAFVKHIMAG
Chain of bovine cardiac myofibrils (full-length cardiac myosin ATPase in the native sarcomere) (Q3SZE5 whole entry partner): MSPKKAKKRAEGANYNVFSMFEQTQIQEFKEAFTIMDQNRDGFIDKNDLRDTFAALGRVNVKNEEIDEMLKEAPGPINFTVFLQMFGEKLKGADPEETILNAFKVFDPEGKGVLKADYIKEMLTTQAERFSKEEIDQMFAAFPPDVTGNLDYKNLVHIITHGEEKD

The term IC50 denotes the midpoint of a concentration-inhibition curve. As to `Cc1cc(C(=O)N[C@@H]2CCc3cc(-c4noc(C5CC5)n4)ccc32)ccn1` [Compound 389, (R)-N-(5-(5-cyclopropyl-1,2,4-oxadiazol-3-yl)-2,3-dihydro-1H-inden-1-yl)-2-methylisonicotinamide], the “CDMF75 IC15” value worked out at 0.6 µM and the IC50 is 1.9 µM.
For the compound `Cc1noc(-c2ccc3c(c2)OC[C@H]3NC(=O)c2nnn(C)n2)n1` [Compound 344, (S)-2-methyl-N-(6-(3-methyl-1,2,4-oxadiazol-5-yl)-2,3-dihydrobenzofuran-3-yl)-2H-tetrazole-5-carboxamide], the “CDMF75 IC15” value is 8.6 µM and the IC50 is greater than 39.2 µM.
With `Cn1nccc1C(=O)N[C@@H]1CCc2cc(-c3noc(C4CCO4)n3)ccc21` (stereo partly drawn) [Compound 174, 1-methyl-N-((1R)-5-(5-(oxetan-2-yl)-1,2,4-oxadiazol-3-yl)-2,3-dihydro-1H-inden-1-yl)-1H-pyrazole-5-carboxamide], the “CDMF75 IC15” value turned out to be 1.1 µM and the IC50 stood at 3.8 µM.
Consider `CCc1nc(-c2ccc3c(c2)CC[C@H]3NC(=O)c2cc(O)no2)no1` [Compound 634, (R)-N-(5-(5-ethyl-1,2,4-oxadiazol-3-yl)-2,3-dihydro-1H-inden-1-yl)-3-hydroxyisoxazole-5-carboxamide], for which the “CDMF75 IC15” value was 0.5 µM and the half-maximal inhibitory concentration (IC50) was 2.1 µM.
The corresponding values for `CCc1nc(-c2ccc3c(c2)CC[C@H]3NC(=O)OCC(C)C)no1` [Compound 322, isobutyl (R)-(5-(5-ethyl-1,2,4-oxadiazol-3-yl)-2,3-dihydro-1H-inden-1-yl)carbamate] are 0.3 µM and 0.9 µM.
As to `CCc1nc(-c2ccc3c(c2)OC[C@H]3NC(=O)N2CC[C@H](O)C2)no1` [Compound 739, (S)-N-((S)-6-(5-ethyl-1,2,4-oxadiazol-3-yl)-2,3-dihydrobenzofuran-3-yl)-3-hydroxypyrrolidine-1-carboxamide], the “CDMF75 IC15” value amounted to 5.4 µM and the half-maximal inhibitory concentration (IC50) worked out at 24.2 µM.
With `Cc1cc(C(=O)NC2CCc3cc(-c4noc(C(F)F)n4)ccc32)n(C)n1` (stereo not shown) [Compound 30, N-(5-(5-(difluoromethyl)-1,2,4-oxadiazol-3-yl)-2,3-dihydro-1H-inden-1-yl)-1,3-dimethyl-1H-pyrazole-5-carboxamide], the “CDMF75 IC15” value turned out to be 0.8 µM and the IC50 stood at 2.3 µM.
Turning to `Cc1nc(-c2ccc3c(c2)CC[C@H]3NC(=O)c2ccnc(C(F)F)c2)no1` [Compound 730, (R)-2-(difluoromethyl)-N-(5-(5-methyl-1,2,4-oxadiazol-3-yl)-2,3-dihydro-1H-inden-1-yl)isonicotinamide], the “CDMF75 IC15” value came out at 0.7 µM and the IC50 came out at 3.2 µM.
Turning to `CC(=O)N[C@@H]1CCc2cc(-c3noc(C4CC4)n3)ccc21` [Compound 419, (R)-N-(5-(5-cyclopropyl-1,2,4-oxadiazol-3-yl)-2,3-dihydro-1H-inden-1-yl)acetamide], the “CDMF75 IC15” value was found to be 1.2 µM and the 50% inhibitory concentration (IC50) came to 4.7 µM.
`[2H]C([2H])([2H])c1nc(-c2ccc3c(c2)CC[C@H]3NC(C)=O)no1` [Compound 408, (R)-N-(5-(5-(methyl-d3)-1,2,4-oxadiazol-3-yl)-2,3-dihydro-1H-inden-1-yl)acetamide]: the “CDMF75 IC15” value amounted to 2.8 µM and the IC50 was determined as 12.8 µM.
`Cc1n[nH]cc1C(=O)N[C@@H]1CCc2cc(-c3noc(C4CCC4)n3)ccc21` [Compound 399, (R)-N-(5-(5-cyclobutyl-1,2,4-oxadiazol-3-yl)-2,3-dihydro-1H-inden-1-yl)-3-methyl-1H-pyrazole-4-carboxamide]: the “CDMF75 IC15” value came to 0.3 µM and the concentration for half-maximal inhibition (IC50) came to 1 µM.
Turning to `CCc1nc(-c2cc(O)c3c(c2)CC[C@H]3NC(=O)c2cnn(C)c2)no1` [Compound 609, N-[(1R)-5-(5-ethyl-1,2,4-oxadiazol-3-yl)-7-hydroxy-2,3-dihydro-1H-inden-1-yl]-1-methyl-1H-pyrazole-4-carboxamide], the “CDMF75 IC15” value turned out to be 0.3 µM and the IC50 is 0.9 µM.
Take `COCc1nc(-c2ccc3c(c2)CC[C@H]3NC(=O)c2cn(CCO)nc2C)no1` [Compound 695, (R)-1-(2-hydroxyethyl)-N-(5-(5-(methoxymethyl)-1,2,4-oxadiazol-3-yl)-2,3-dihydro-1H-inden-1-yl)-3-methyl-1H-pyrazole-4-carboxamide]: the “CDMF75 IC15” value worked out at 2.1 µM and the half-maximal inhibitory concentration (IC50) came to 7.8 µM.
With `Cc1nc(-c2ccc3c(c2)OC[C@H]3NC(=O)c2ccnc(CO)c2)no1` [Compound 719, (S)-2-(hydroxymethyl)-N-(6-(5-methyl-1,2,4-oxadiazol-3-yl)-2,3-dihydrobenzofuran-3-yl)isonicotinamide], the “CDMF75 IC15” value stood at 0.8 µM and the 50% inhibitory concentration (IC50) worked out at 3.7 µM.
Regarding `CCc1cc(-c2ccc3c(c2)OC[C@H]3NC(=O)c2cnn(C)c2)no1` [Compound 423, (S)—N-(6-(5-ethylisoxazol-3-yl)-2,3-dihydrobenzofuran-3-yl)-1-methyl-1H-pyrazole-4-carboxamide], the “CDMF75 IC15” value amounted to 0.3 µM and the 50% inhibitory concentration (IC50) amounted to 1.2 µM.
For `Cc1nc(-c2ccc3c(c2)OCC3NC(=O)c2cnn(C)c2C)no1` (stereo not shown) [Compound 162, 1,5-dimethyl-N-(6-(5-methyl-1,2,4-oxadiazol-3-yl)-2,3-dihydrobenzofuran-3-yl)-1H-pyrazole-4-carboxamide], the “CDMF75 IC15” value amounted to 1.6 µM and the 50% inhibitory concentration (IC50) was 6.4 µM.
Consider `COC(=O)Cc1nc(-c2ccc3c(c2)CC[C@H]3NC(=O)c2cnn(C)c2)no1` [Compound 544, methyl 2-(3-{(1R)-1-[(1-methylpyrazol-4-yl)carbonylamino]indan-5-yl}-1,2,4-oxadiazol-5-yl)acetate], for which the “CDMF75 IC15” value was found to be 34.9 µM and the IC50 is 39.2 µM.
With `CCc1nc(-c2ccc3c(c2)CC[C@H]3NC(=O)OCC2COC2)no1` [Compound 358, oxetan-3-ylmethyl (R)-(5-(5-ethyl-1,2,4-oxadiazol-3-yl)-2,3-dihydro-1H-inden-1-yl)carbamate], the “CDMF75 IC15” value turned out to be 0.6 µM and the IC50 worked out at 2.2 µM.
Regarding `Cc1cc(C(=O)NC2COc3cc(-c4noc(C(F)F)n4)ccc32)n(C)n1` (stereo not shown) [Compound 190, N-(6-(5-(difluoromethyl)-1,2,4-oxadiazol-3-yl)-2,3-dihydrobenzofuran-3-yl)-1,3-dimethyl-1H-pyrazole-5-carboxamide], the “CDMF75 IC15” value was 0.6 µM and the half-maximal inhibitory concentration (IC50) amounted to 2 µM.
With `C[C@@H](CO)c1nc(-c2ccc3c(c2)CC[C@H]3NC(=O)c2ccnn2C)no1` [Compound 498, N-((R)-5-(5-((S)-1-hydroxypropan-2-yl)-1,2,4-oxadiazol-3-yl)-2,3-dihydro-1H-inden-1-yl)-1-methyl-1H-pyrazole-5-carboxamide], the “CDMF75 IC15” value was determined as 7.9 µM and the IC50 worked out at 34.7 µM.
With `COC(=O)N[C@@H]1CCc2cc(-c3noc(C)n3)ccc21` [Compound 303, methyl (R)-(5-(5-methyl-1,2,4-oxadiazol-3-yl)-2,3-dihydro-1H-inden-1-yl)carbamate], the “CDMF75 IC15” value was determined as 0.6 µM and the IC50 was found to be 2.7 µM.
With `COCc1nc(-c2ccc3c(c2)CC[C@H]3NC(=O)c2cc(OC)no2)no1` [Compound 693, (R)-3-methoxy-N-(5-(5-(methoxymethyl)-1,2,4-oxadiazol-3-yl)-2,3-dihydro-1H-inden-1-yl)isoxazole-5-carboxamide], the “CDMF75 IC15” value worked out at 0.9 µM and the IC50 amounted to 3.7 µM.
For `Cn1nnc(C(=O)N[C@@H]2COc3cc(-c4noc(C5CC5)n4)ccc32)n1` [Compound 235, (S)-N-(6-(5-cyclopropyl-1,2,4-oxadiazol-3-yl)-2,3-dihydrobenzofuran-3-yl)-2-methyl-2H-tetrazole-5-carboxamide], in that order: 1.2 µM and 4.8 µM.
`CCc1nc(-c2ccc3c(c2)CC[C@H]3NC(=O)OCC2CN(C(C)=O)C2)no1` [Compound 360, (1-acetylazetidin-3-yl)methyl (R)-(5-(5-ethyl-1,2,4-oxadiazol-3-yl)-2,3-dihydro-1H-inden-1-yl)carbamate]: the “CDMF75 IC15” value came out at 21.6 µM and the IC50 was greater than 39.2 µM.
Turning to `CN(C)C(=O)N[C@@H]1CCc2cc(-c3noc(C(F)F)n3)ccc21` [Compound 299, (R)-3-(5-(5-(difluoromethyl)-1,2,4-oxadiazol-3-yl)-2,3-dihydro-1H-inden-1-yl)-1,1-dimethylurea], the “CDMF75 IC15” value amounted to 6.7 µM and the IC50 worked out at 30.9 µM.
With `COCc1nc(-c2ccc3c(c2)CC[C@H]3NC(=O)c2cnn(CCO)c2C)no1` [Compound 694, (R)-1-(2-hydroxyethyl)-N-(5-(5-(methoxymethyl)-1,2,4-oxadiazol-3-yl)-2,3-dihydro-1H-inden-1-yl)-5-methyl-1H-pyrazole-4-carboxamide], the “CDMF75 IC15” value worked out at 1.8 µM and the IC50 worked out at 7 µM.
With `Cc1nc(-c2ccc3c(c2)CCC3NC(=O)Nc2cncnc2)no1` (stereo not shown) [Compound 96, 1-(5-(5-methyl-1,2,4-oxadiazol-3-yl)-2,3-dihydro-1H-inden-1-yl)-3-(pyrimidin-5-yl)urea], the “CDMF75 IC15” value was 3.0 µM and the IC50 stood at 13.4 µM.
The corresponding values for `[2H]C([2H])([2H])c1nc(-c2ccc3c(c2)OC[C@H]3NC(=O)c2nnn(C)n2)no1` [Compound 271, (S)-2-methyl-N-(6-(5-(methyl-d3)-1,2,4-oxadiazol-3-yl)-2,3-dihydrobenzofuran-3-yl)-2H-tetrazole-5-carboxamide] are 4.3 µM and 17.1 µM.
Regarding `COCc1nc(-c2ccc3c(c2)OC[C@H]3NC(=O)c2cc(CO)ccn2)no1` [Compound 713, (S)-4-(hydroxymethyl)-N-(6-(5-(methoxymethyl)-1,2,4-oxadiazol-3-yl)-2,3-dihydrobenzofuran-3-yl)picolinamide], the “CDMF75 IC15” value was 2.7 µM and the IC50 was 11 µM.
